SMILES strings stand for the structures.

The target of the experiment is T1, human skin chymase (Homo sapiens, UniProt P23946).
T1 construct: using human skin chymase (Cortex Biochem); purchased Cortex Biochem
T1 sequence (P23946 22-247): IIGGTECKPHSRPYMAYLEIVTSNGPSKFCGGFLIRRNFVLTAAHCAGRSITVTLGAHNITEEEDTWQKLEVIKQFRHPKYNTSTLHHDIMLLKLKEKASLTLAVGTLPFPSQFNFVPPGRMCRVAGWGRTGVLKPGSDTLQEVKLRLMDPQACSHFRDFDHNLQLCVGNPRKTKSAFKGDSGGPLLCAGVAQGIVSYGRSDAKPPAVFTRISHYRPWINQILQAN
The experiment in a line: Enzyme-catalyzed hydrolysis assay (chymase inhibition). As to conditions: 10 nM enzyme, 0.7 mM Suc-Ala-Ala-Pro-Phe-pNa, pH 8.0, 37° C., 30 minutes. Type of experiment: biochemical. The protocol:
Enzyme-catalyzed hydrolysis rates were measured spectro-photometrically using human skin chymase (Cortex Biochem), a chromogenic substrate (Suc-Ala-Ala-Pro-Phe-pNa) (Bachem) in aqueous buffer (450 mM Tris, 1800 mM NaCl, pH 8.0), and a microplate reader (Molecular Devices). […] Percent inhibition was calculated by comparing the initial reaction slopes of the samples without inhibitor to those with inhibitor. IC50 values were determined using a four parameter fit logistics model. The term “NT” indicates a compound that was not tested.
Turning to `O=C(Nc1cc2ccccc2cc1C(=O)N1CCC2(CC1)C(=O)NCN2c1ccccc1)C(c1cccc2ccccc12)P(=O)(O)O` (centres unmarked) [Cpd 104], half-maximal inhibition (IC50) was put at 3.88 ± 2.41 µM.
As to `COc1cccc(/C=C/NC(=O)C(c2csc3ccc(Cl)cc23)P(C)(=O)O)c1` (centres unmarked) [Cpd 154], inhibition was half-maximal at 0.036 ± 0.05 µM (IC50).
As for `CP(=O)(O)C(C(=O)N/C=C/c1ccccc1F)c1csc2ccc(Cl)cc12` (centres unmarked) [Cpd 21], the IC50 worked out at 0.08 ± 0.02 µM.
As to `O=C(Nc1cc2ccccc2cc1NC(=O)C(c1cccc2ccccc12)P(=O)(O)O)C1CCN(C(=O)c2ccc3ccccc3c2)CC1` (centres unmarked) [Cpd 141, [(3-{[1-(Naphthalene-2-carbonyl)-piperidine-4-carbonyl]-amino}-naphthalen-2-ylcarbamoyl)-naphthalen-1-yl-methyl]-phosphonic acid], the IC50 was determined as 9.5 µM.
Turning to `O=C(Nc1cc2ccccc2cc1C(=O)N1CCC(c2c[nH]c3ccccc23)CC1)C(c1cccc2ccccc12)P(=O)(O)O` (centres unmarked) [Cpd 83], the IC50 worked out at 1.72 µM.
Then `O=C(Nc1ccc2ccccc2c1)C(c1cccc2c1ccn2-c1ccccc1)P(=O)(O)O` (centres unmarked) [Cpd 128], with 7.3 µM.
To `O=C(Nc1ccc2ccccc2c1)C(c1csc2cc(Br)ccc12)P(=O)(O)O` (centres unmarked) [Cpd 76] belongs 1.43 ± 0.451 µM; to `Cc1ccccc1C=CNC(=O)C(c1csc2ccc(Cl)cc12)P(C)(=O)O` (centres unmarked) [Cpd 155], 0.34 ± 0.04 µM.
Regarding `CP(=O)(O)C(C(=O)Nc1ccc2ccccc2c1)c1c(C(=O)NCc2ccccc2)sc2ccccc12` (centres unmarked) [Cpd 127], the concentration for half-maximal inhibition (IC50) stood at 7 ± 1.1 µM.
To `O=C(NC=Cc1ccc(C(F)(F)F)cc1)C(c1csc2ccc(Cl)cc12)P(=O)(O)O` (centres unmarked) [Cpd 81] belongs 1.7 ± 0.21 µM; to `O=C(Nc1ccc2ccccc2c1)C(C1=CS(=O)(=O)c2ccc(Cl)cc21)P(=O)(O)O` (centres unmarked) [Cpd 86, [(5-Chloro-1,1-dioxo-1H-1λ^6-benzo[b]thiophen-3-yl)-(naphthalen-2-ylcarbamoyl)-methyl]-phosphonic acid], 1.9 ± 0.4 µM.
The molecule `O=C(Nc1ccc2ccccc2c1)C(c1csc2ccc(Cl)cc12)P(=O)(O)CCCc1ccc2c(c1)OCO2` (centres unmarked) [Cpd 39] showed an IC50 of 0.31 ± 0.04 µM.
To `O=C(Nc1ccc2ccccc2c1)C(c1csc2ccc(F)cc12)P(=O)(O)O` (centres unmarked) [Cpd 10] belongs 0.029 ± 0.01 µM; to `O=C(Nc1cc2ccccc2cc1C(=O)N1CCC(CCc2ccccc2)C1)C(c1cccc2ccccc12)P(=O)(O)O` (centres unmarked) [Cpd 54], 0.51 ± 0.124 µM; to `O=C(Nc1cccc(Oc2ccccc2)c1)C(c1cccc2ccccc12)P(=O)(O)O` (centres unmarked) [Cpd 138], 8.7 µM.
For `O=C(Nc1cc(NC(=O)C(c2cccc3ccccc23)P(=O)(O)O)cc2ccccc12)C1CCN(C(=O)c2ccc3ccccc3c2)CC1` (centres unmarked) [Cpd 8, [(4-{[1-(Naphthalene-2-carbonyl)-piperidine-4-carbonyl]-amino}-naphthalen-2-ylcarbamoyl)-naphthalen-1-yl-methyl]-phosphonic acid], the 50% inhibitory concentration (IC50) came to 0.021 ± 0.01 µM.
Then `COc1cccc(/C=C/NC(=O)C(c2csc3ccc(Cl)cc23)P(C)(=O)O)c1OC` (centres unmarked) [Cpd 165], with 0.078 ± 0.03 µM; and `O=C(Nc1ccc2ccccc2c1)C(c1cn(-c2ccccc2)c2ccccc12)P(=O)(O)O` (centres unmarked) [Cpd 82, [(Naphthalen-2-ylcarbamoyl)-(1-phenyl-1H-indol-3-yl)-methyl]-phosphonic acid], with 1.7 ± 0.41 µM.
To `O=C(NC=Cc1ccc(O)cc1)C(c1csc2ccc(Cl)cc12)P(=O)(O)O` (centres unmarked) [Cpd 66] belongs 0.868 ± 0.13 µM.
`O=C(NC=Cc1cc(F)cc(F)c1)C(c1csc2ccc(Cl)cc12)P(=O)(O)O` (centres unmarked) [Cpd 199] had an IC50 of 0.0018 µM.
To `O=C(Nc1ccc2ccccc2c1OCC(=O)N1CCC(c2ccccc2)CC1)C(c1cccc2ccccc12)P(=O)(O)O` (centres unmarked) [Cpd 114, (Naphthalen-1-yl-{1-[2-oxo-2-(4-phenyl-piperidin-1-yl)-ethoxy]-naphthalen-2-ylcarbamoyl}-5 methyl)-phosphonic acid] belongs 4.9 ± 1.34 µM; to `O=C(Nc1ccccc1)OCc1cc2ccccc2cc1NC(=O)C(c1cccc2ccccc12)P(=O)(O)O` (centres unmarked) [Cpd 94], 2.75 µM; to `CP(=O)(O)C(C(=O)N/C=C/c1cc(F)c(F)c(F)c1)c1csc2ccc(Cl)cc12` (centres unmarked) [Cpd 16], 0.055 ± 0.005 µM.

As a reminder, the IC50 is the point on the concentration scale where inhibition reaches its midpoint. Read a high IC50 as a need for much substance.

Source of the values: patent publication US7459444B2, “Inhibitors of chymase” (Janssen Pharmaceutica N.V., priority 2004, dated 2008).
